{"source": "patent US20240350447A1", "about": "“DELIVERY METHODS FOR TREATING BRAIN AND CENTRAL NERVOUS SYSTEM DISEASES” (JENIVISION INC., priority 2021, published 2024)", "assay": "Biodistribution of DHA after periorbital skin (NIODP) application to one eye", "format": "in vivo, Cynomolgus monkeys", "conditions": "for DHA in cornea / DHA in upper eyelid / DHA in vitreous humor / Retina/Upper eyelid ratio of DHA / concentration at 0.5 h / concentration at 3 h / concentration at 6 h / concentration at 24 h / concentration at 0 h / OD/OS retina ratio of DHA: 6755.1 μg to OS via NIODP; for concentration at 0.5 h / concentration at 3 h / concentration at 6 h / concentration at 24 h / concentration at 0 h / Kp: cynomolgus monkey; for OD/OS retina ratio of DHA: undosed/dosed retina", "experimental": "An experiment was performed to determine the biodisposition of DHA following topical application to the periorbital skin that surrounds the anterior portion of the globe was performed.\nDocosahexaenoic acid (DHA) is an omega-3 fatty acid and an essential component for neuronal formation, function and protection. […] […] High concentrations of DHA (from 35.6 to 97.3 μg/g) were detected in the undoes retina, which is similar to the dosed retina.\nMoreover, compared to the baseline retina/plasma ratio of 7-fold, and with no significant changes in plasma, the retina/plasma ratios of DHA in the undosed eye were at least 30-fold at each post dose timepoint, signifying that the undosed retina uptake of DHA was not from blood circulation.", "key": {"[1]": {"conditions": "OD (undosed eye), 0 h (baseline)"}}, "note": "Read-outs that look alike come from different tables or passages of the source.", "data": [{"smiles": "CC/C=C\\C/C=C\\C/C=C\\C/C=C\\C/C=C\\C/C=C\\CCC(=O)O", "note": "[DHA, docosahexaenoic acid]", "values": [{"measurement": "DHA in the undosed right cornea and vitreous humor", "setting": "DHA to OS via NIODP", "value": "No DHA was detectable"}, {"measurement": "DHA in cornea", "setting": "[1]", "value": "BLQ"}, {"measurement": "DHA in upper eyelid", "setting": "[1]", "value": "BLQ"}, {"measurement": "DHA in vitreous humor", "setting": "[1]", "value": "BLQ"}, {"measurement": "Retina/Upper eyelid ratio of DHA", "setting": "OD (undosed eye), 0.5 h", "value": 172, "unit": "%"}, {"measurement": "Retina/Upper eyelid ratio of DHA", "setting": "OD (undosed eye), 3 h", "value": 1678, "unit": "%"}, {"measurement": "Retina/Upper eyelid ratio of DHA", "setting": "OD (undosed eye), 6 h", "value": 1057, "unit": "%"}, {"measurement": "Retina/Upper eyelid ratio of DHA", "setting": "OD (undosed eye), 24 h", "value": 672, "unit": "%"}, {"measurement": "DHA in cornea", "setting": "OS (dosed eye), 0 h (baseline)", "value": "BLQ"}, {"measurement": "DHA in upper eyelid", "setting": "OS (dosed eye), 0 h (baseline)", "value": "BLQ"}, {"measurement": "DHA in vitreous humor", "setting": "OS (dosed eye), 0 h (baseline)", "value": "BLQ"}, {"measurement": "Retina/Upper eyelid ratio of DHA", "setting": "OS (dosed eye), 0.5 h", "value": 29, "unit": "%"}, {"measurement": "Retina/Upper eyelid ratio of DHA", "setting": "OS (dosed eye), 3 h", "value": 16, "unit": "%"}, {"measurement": "Retina/Upper eyelid ratio of DHA", "setting": "OS (dosed eye), 6 h", "value": 735, "unit": "%"}, {"measurement": "Retina/Upper eyelid ratio of DHA", "setting": "OS (dosed eye), 24 h", "value": 292, "unit": "%"}, {"measurement": "concentration at 0.5 h", "setting": "cornea of the undosed right eye (OD), topical, OD (undosed eye), 0.5 h, read-out: DHA in cornea", "value": 0, "unit": "ng/g"}, {"measurement": "concentration at 3 h", "setting": "cornea of the undosed right eye (OD), topical, OD (undosed eye), 3 h, read-out: DHA in cornea", "value": 0, "unit": "ng/g"}, {"measurement": "concentration at 6 h", "setting": "cornea of the undosed right eye (OD), topical, OD (undosed eye), 6 h, read-out: DHA in cornea", "value": 0, "unit": "ng/g"}, {"measurement": "concentration at 24 h", "setting": "cornea of the undosed right eye (OD), topical, OD (undosed eye), 24 h, read-out: DHA in cornea", "value": 0, "unit": "ng/g"}, {"measurement": "concentration at 0 h", "setting": "plasma, topical, 0 h (baseline), read-out: DHA in plasma", "value": 2400, "unit": "ng/mL"}, {"measurement": "concentration at 0.5 h", "setting": "plasma, topical, 0.5 h post dose, read-out: DHA in plasma", "value": 2200, "unit": "ng/mL"}, {"measurement": "concentration at 3 h", "setting": "plasma, topical, 3 h post dose, read-out: DHA in plasma", "value": 3100, "unit": "ng/mL"}, {"measurement": "concentration at 6 h", "setting": "plasma, topical, 6 h post dose, read-out: DHA in plasma", "value": 2100, "unit": "ng/mL"}, {"measurement": "concentration at 24 h", "setting": "plasma, topical, 24 h post dose, read-out: DHA in plasma", "value": 1200, "unit": "ng/mL"}, {"measurement": "Kp", "setting": "retina / plasma, baseline (before dosing), read-out: Baseline retina/plasma ratio of DHA", "value": 7}, {"measurement": "concentration at 0 h", "setting": "retina of the dosed left eye (OS), topical, OS (dosed eye), 0 h (baseline), read-out: DHA in retina", "value": 16500, "unit": "ng/g"}, {"measurement": "Kp", "setting": "retina of the undosed eye / plasma, topical, 6775.1 μg/eye, each post dose timepoint, DHA to OS via NIODP, read-out: Retina/plasma ratio of DHA in the undosed eye", "value": "≥ 30"}, {"measurement": "concentration at 0 h", "setting": "retina of the undosed right eye (OD), topical, OD (undosed eye), 0 h (baseline), read-out: DHA in retina", "value": 16500, "unit": "ng/g"}, {"measurement": "concentration at 0.5 h", "setting": "retina of the undosed right eye (OD), topical, OD (undosed eye), 0.5 h, read-out: DHA in retina", "value": 70800, "unit": "ng/g"}, {"measurement": "concentration at 3 h", "setting": "retina of the undosed right eye (OD), topical, OD (undosed eye), 3 h, read-out: DHA in retina", "value": 97300, "unit": "ng/g"}, {"measurement": "concentration at 6 h", "setting": "retina of the undosed right eye (OD), topical, OD (undosed eye), 6 h, read-out: DHA in retina", "value": 78200, "unit": "ng/g"}, {"measurement": "concentration at 24 h", "setting": "retina of the undosed right eye (OD), topical, OD (undosed eye), 24 h, read-out: DHA in retina", "value": 35600, "unit": "ng/g"}, {"measurement": "concentration at 0.5 h", "setting": "upper eyelid of the undosed right eye (OD), topical, OD (undosed eye), 0.5 h, read-out: DHA in upper eyelid", "value": 41100, "unit": "ng/g"}, {"measurement": "concentration at 3 h", "setting": "upper eyelid of the undosed right eye (OD), topical, OD (undosed eye), 3 h, read-out: DHA in upper eyelid", "value": 5800, "unit": "ng/g"}, {"measurement": "concentration at 6 h", "setting": "upper eyelid of the undosed right eye (OD), topical, OD (undosed eye), 6 h, read-out: DHA in upper eyelid", "value": 7400, "unit": "ng/g"}, {"measurement": "concentration at 24 h", "setting": "upper eyelid of the undosed right eye (OD), topical, OD (undosed eye), 24 h, read-out: DHA in upper eyelid", "value": 5300, "unit": "ng/g"}, {"measurement": "concentration at 0.5 h", "setting": "vitreous humor of the dosed left eye (OS), topical, OS (dosed eye), 0.5 h, read-out: DHA in vitreous humor", "value": 0, "unit": "ng/mL"}, {"measurement": "concentration at 3 h", "setting": "vitreous humor of the dosed left eye (OS), topical, OS (dosed eye), 3 h, read-out: DHA in vitreous humor", "value": 0, "unit": "ng/mL"}, {"measurement": "concentration at 6 h", "setting": "vitreous humor of the dosed left eye (OS), topical, OS (dosed eye), 6 h, read-out: DHA in vitreous humor", "value": 0, "unit": "ng/mL"}, {"measurement": "concentration at 24 h", "setting": "vitreous humor of the dosed left eye (OS), topical, OS (dosed eye), 24 h, read-out: DHA in vitreous humor", "value": 0, "unit": "ng/mL"}, {"measurement": "concentration at 0.5 h", "setting": "vitreous humor of the undosed right eye (OD), topical, OD (undosed eye), 0.5 h, read-out: DHA in vitreous humor", "value": 0, "unit": "ng/mL"}, {"measurement": "concentration at 3 h", "setting": "vitreous humor of the undosed right eye (OD), topical, OD (undosed eye), 3 h, read-out: DHA in vitreous humor", "value": 0, "unit": "ng/mL"}, {"measurement": "concentration at 6 h", "setting": "vitreous humor of the undosed right eye (OD), topical, OD (undosed eye), 6 h, read-out: DHA in vitreous humor", "value": 0, "unit": "ng/mL"}, {"measurement": "concentration at 24 h", "setting": "vitreous humor of the undosed right eye (OD), topical, OD (undosed eye), 24 h, read-out: DHA in vitreous humor", "value": 0, "unit": "ng/mL"}, {"measurement": "OD/OS retina ratio of DHA", "setting": "0 h (baseline)", "value": 100, "unit": "%"}, {"measurement": "OD/OS retina ratio of DHA", "setting": "0.5 h", "value": 64, "unit": "%"}, {"measurement": "OD/OS retina ratio of DHA", "setting": "3 h", "value": 146, "unit": "%"}]}]}
